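Dose response: 5 concentrations. Exposure: 48 h. Format: 96-well plates. Endpoint: linear interpolation; highest concentration if not reached. At the GI50, growth is halved. TGI denotes the concentration required for complete inhibition of growth.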
Experiments:
Experiment in all cases: inhibition of tumour cell growth, NCI panel, 48 h; in the data active = GI50 below about 0.43 µM; inactive = the rest
[1] = system: MDA-MB-435
[2] = system: U251 CNS
[3] = system: T-47D breast
[4] = system: EKVX NSCLC
[5] = system: NCI/ADR-RES ovarian
[6] = system: SN12C renal
[7] = system: TK-10 renal
[8] = system: SF-539 CNS
[9] = system: SK-MEL-5 melanoma
[10] = system: CAKI-1 renal
[11] = system: KM12 colon
[12] = system: COLO 205 colon
[13] = system: HT29 colon
[14] = system: 786-0 renal
[15] = system: UACC-257 melanoma
[16] = system: NCI-H23 lung
[17] = system: UACC-62 melanoma
[18] = system: OVCAR-3 ovarian
[19] = system: HCC-2998 colon
[20] = system: HOP-92 NSCLC
[21] = system: IGROV1 ovarian
[22] = system: HS 578T breast
[23] = system: HOP-62 NSCLC
[24] = system: SNB-75 CNS
[25] = system: NCI-H522 lung
[26] = system: OVCAR-4 ovarian
[27] = system: SK-MEL-28 melanoma
[28] = system: UO-31 renal
[29] = system: SNB-19 CNS
[30] = system: SW-620 colon
[31] = system: SF-295 CNS
[32] = system: HCT-15 colon
[33] = system: RXF 393 renal
[34] = system: SF-268 CNS
[35] = system: CCRF-CEM leukemia
[36] = system: RPMI-8226 leukemia
[37] = system: A549 NSCLC
[38] = system: MOLT-4 leukemia
[39] = system: SK-OV-3 ovarian
[40] = system: LOX IMVI melanoma
[41] = system: OVCAR-8 ovarian
[42] = system: NCI-H460 lung
[43] = system: M14 melanoma
[44] = system: MDA-MB-231 breast
[45] = system: PC-3 prostate
[46] = system: MCF7 breast
[47] = system: DU-145 prostate
[48] = system: BT-549 breast
[49] = system: HCT-116 colon
[50] = system: ACHN renal
[51] = system: SK-MEL-2 melanoma
[52] = system: OVCAR-5 ovarian
[53] = system: NCI-H226 lung
[54] = system: A498 renal
[55] = system: HL-60(TB) leukemia
[56] = system: MALME-3M melanoma
[57] = system: K-562 leukemia

O=C(Cc1csc2nc(-c3ccc(Br)cc3)cn12)N/N=C/c1ccccc1
32 µM: TGI [15]
62.8 µM: TGI [30]
40.9 µM: TGI [37]
51.1 µM: TGI [22]
90.8 µM: TGI [40]
25.6 µM: TGI [50]
60.8 µM: TGI [25]
42.1 µM: TGI [7]
46.3 µM: TGI [18]
51.8 µM: TGI [1]
20.5 µM: TGI [41]
37 µM: TGI [20] | TGI [38]
37.4 µM: TGI [31]
32.1 µM: TGI [2]
39.4 µM: TGI [8]
58.2 µM: TGI [44]
67.6 µM: TGI [5]
21.2 µM: TGI [49]
52.5 µM: TGI [4]
39.8 µM: TGI [23]
49.1 µM: TGI [48]
82.2 µM: TGI [10]
inactive: GI50 [1] 12.1 µM | GI50 [2] 12.7 µM | GI50 [3] 36.9 µM | GI50 [4] 6.95 µM | GI50 [5] 13.6 µM | GI50 [6] 13.1 µM | GI50 [7] 14.1 µM | GI50 [8] 16.2 µM | GI50 [9] 5.66 µM | GI50 [10] 30.3 µM | GI50 [11] 26.1 µM | GI50 [12] 66.1 µM | GI50 [13] 44 µM | GI50 [14] 27.7 µM | GI50 [15] 6.21 µM | GI50 [16] 12.6 µM | GI50 [17] 11.6 µM | GI50 [18] 24.1 µM | GI50 [19] 13.2 µM | GI50 [20] 12.2 µM | GI50 [21] 11.2 µM | GI50 [22] 16.4 µM | GI50 [23] 15.3 µM | GI50 [24] 31.8 µM | GI50 [25] 14.2 µM | GI50 [26] 47.1 µM | GI50 [27] > 100 µM | GI50 [28] 58.2 µM | GI50 [29] 44.1 µM | GI50 [30] 18.8 µM | GI50 [31] 12.1 µM | GI50 [32] 16.3 µM | GI50 [33] 14.5 µM | GI50 [34] > 100 µM | GI50 [35] 17.3 µM | GI50 [36] 7.38 µM | GI50 [37] 13.5 µM | GI50 [38] 6.69 µM | GI50 [39] 65.7 µM | GI50 [40] 12.2 µM | GI50 [41] 2.36 µM | GI50 [42] 53 µM | GI50 [43] 20.9 µM | GI50 [44] 13 µM | GI50 [45] 20.2 µM | GI50 [46] 75.9 µM | GI50 [47] 14.6 µM | GI50 [48] 13 µM | GI50 [49] 9.32 µM | GI50 [50] 10.8 µM | GI50 [51] 33 µM | GI50 [52] 30.7 µM
39.9 µM: TGI [6]
> 100 µM: TGI [3] | TGI [11] | TGI [12] | TGI [13] | TGI [14] | TGI [26] | TGI [27] | TGI [28] | TGI [29] | TGI [32] | TGI [34] | TGI [35] | TGI [36] | TGI [39] | TGI [42] | TGI [43] | TGI [45] | TGI [46] | TGI [51] | TGI [52]
38.8 µM: TGI [33]
32.7 µM: TGI [21]
45.1 µM: TGI [47]
49.3 µM: TGI [19]
89.2 µM: TGI [24]
28.2 µM: TGI [17]
26.9 µM: TGI [9]
61.4 µM: TGI [16]

COc1ccc(C(=O)/C=C/c2c(OC)cc(OC)cc2OC)c(OC)c1
8.37 µM: TGI [18]
inactive: GI50 [2] 3.95 µM | GI50 [3] 16.8 µM | GI50 [53] 21.3 µM | GI50 [4] 4.2 µM | GI50 [5] 0.78 µM | GI50 [6] 7.24 µM | GI50 [7] 36.6 µM | GI50 [8] 2.7 µM | GI50 [9] 1.51 µM | GI50 [10] 1.44 µM | GI50 [11] 1.21 µM | GI50 [54] 2.23 µM | GI50 [12] 3.38 µM | GI50 [13] 0.881 µM | GI50 [14] 15.4 µM | GI50 [15] 36.6 µM | GI50 [16] 3.09 µM | GI50 [17] 1.32 µM | GI50 [18] 1.46 µM | GI50 [19] 2.51 µM | GI50 [55] 3.64 µM | GI50 [20] 16.6 µM | GI50 [22] 5.23 µM | GI50 [23] 11.8 µM | GI50 [24] 3.26 µM | GI50 [25] 2.47 µM | GI50 [26] > 100 µM | GI50 [27] > 100 µM | GI50 [28] > 100 µM | GI50 [29] 8.37 µM | GI50 [30] 0.911 µM | GI50 [31] 0.987 µM | GI50 [32] 2.42 µM | GI50 [56] 7.44 µM | GI50 [34] 7.33 µM | GI50 [36] 5.8 µM | GI50 [37] 5.36 µM | GI50 [38] > 100 µM | GI50 [39] 27.9 µM | GI50 [40] 3.7 µM | GI50 [41] 4.91 µM | GI50 [42] 2.77 µM | GI50 [43] 2.59 µM | GI50 [44] 5.76 µM | GI50 [45] 4.6 µM | GI50 [46] 3.85 µM | GI50 [47] 3.21 µM | GI50 [57] 0.853 µM | GI50 [48] 83.8 µM | GI50 [49] 3.31 µM | GI50 [50] 21.5 µM | GI50 [51] 5.52 µM | GI50 [52] > 100 µM
active: GI50 [1] 0.275 µM
0.947 µM: TGI [1]
> 100 µM: TGI [2] | TGI [3] | TGI [53] | TGI [4] | TGI [5] | TGI [6] | TGI [7] | TGI [8] | TGI [9] | TGI [10] | TGI [11] | TGI [12] | TGI [13] | TGI [14] | TGI [15] | TGI [16] | TGI [17] | TGI [19] | TGI [55] | TGI [22] | TGI [23] | TGI [24] | TGI [25] | TGI [26] | TGI [27] | TGI [28] | TGI [29] | TGI [30] | TGI [32] | TGI [56] | TGI [34] | TGI [36] | TGI [37] | TGI [38] | TGI [39] | TGI [40] | TGI [41] | TGI [42] | TGI [43] | TGI [44] | TGI [45] | TGI [46] | TGI [47] | TGI [57] | TGI [48] | TGI [49] | TGI [50] | TGI [51] | TGI [52]
8.87 µM: TGI [54]
95.2 µM: TGI [20]
5.31 µM: TGI [31]

— PubChem BioAssay (NCI)
